For series [1], the target named is T1, tyrosinase (Agaricus bisporus, UniProt C7FF04). To be noted: cited from earlier work; for tyrosinase inhibitory activity compared with biphenol 1: spectrophotometric and electrochemical assays.
For another series, the system named is Tenebrio molitor. Put plainly: Insecticidal properties on mealworm larvae. It is filed as in vivo. To be noted: Tenebrio molitor, topical, 120 h, larvae immersed three seconds in 2.5 mL acetone solution 6.4 mg/mL, reared five days; DFB as Dimilin WP 25% a.i., 25.6 mg/mL; read-out: Mortality% (Mean ± SD). Here is the method: Late instar larvae of Tenebrio molitor from a twenty-year-old insect culture at the Research Institute on Terrestrial Ecosystems (National Research Council, Sassari, Italy) were used in the experiments. The species was reared on bran flour, with the integration of fresh vegetables, at 25 °C, 65% relative humidity and 16:8 hours light/darkness.
One hundred medium instar larvae were isolated in a petri dishes (diam. 50 mm). They were then immersed for three seconds in 2.5 mL of an acetone solution (concentration 6.4 mg/mL w:v) of one of the fourteen compounds listed in Table 3. In addition, a treatment with the commercial formulation Dimilin (WP, 25% a.i. diflubenzuron) (acetone solution, 25.6 mg/mL w:v) and a negative control (no treatment) were tested.
After treatment, the larvae were subdivided into five 20-specimen groups and reared for five days in a small PVC box (150 L × 120 W × 50 H mm) with the same feed and conditions as standard rearing. Mortality was recorded daily.
The statistical analysis was conducted with the R software (R Development Core Team 2016). Mortality data, expressed as a percentage, were arcsin(√x)-transformed to satisfy assumptions of normality. ANOVA was performed by the Duncan test for mean separation.

For series [2], the system named is PC12 cells. Put plainly: Protection of PC12 cells against MnCl2 damage (MTT). It is filed as cell-based, rat. To be noted: concentration with significant increase in viability vs MnCl2; co-treatment with 1 mM MnCl2; n.p.: no protection.
Protocol: (§1) PC12 cells, rat pheochromocytoma-derived cell line (ATCCCRL-1721) (passages 12–25) were maintained at 37
(§2) °C humidified air containing 5% CO2/95% atmospheric air and cultured in a 60 mm plastic culture plates with
(§3) Dulbecco’s modified Eagle’s medium supplemented with 10% horse serum, 5% fetal bovine serum and 1% of
(§4) penicillin/streptomycin. PC12 cells were treated for 24 h with the different compounds at different
(§5) concentrations ranging from 1 to 40 μM, to evaluate their eventual toxicity. Then, in order to assess the
(§6) eventual compounds’ protection properties, PC12 cell treated with hydrogen peroxide (100μM) in association
with increasing concentration of the above-mentioned molecules, from 1 up to 20 μM. For the compounds that
against MnCl2 insult. For all treatments cell viability was measured by means of MTT assay, as explained in
(§7) At the end of the exposure time of each experiment, the cell viability was assessed by means of MTT (3-(4,5-
For this purpose, 1 mg/mL of MTT was added
(§8) to each sample and incubated for 4 h at 37 °C. Only viable cells are able to convert the soluble dye MTT into
the insoluble formazan crystals. After the incubation the MTT supernatant solution was removed, the cells […]
(§9) isopropanol. After centrifugation of the solution at 4,000 rpm for 5 min, the absorbance for each sample was
assessed by means of a Bauty Diagnostic Microplate Reader at 578 nm. […]
For another series, the system named is laccase. Put plainly: Laccase amperometric biosensor: IC50 and type of inhibition. The format is biochemical. The settings on record: for Type of Inhibition Laccase: Lineweaver-Burk plot, biosensor exposed 30 min to twice the lowest inhibiting concentration; for VMAX, substrate + inhibitor, LAC: dopamine calibration 0-140 mM after inhibitor exposure, n=4 biosensors; for IC50: enzyme immobilized on biosensor, dopamine 50 µM, PBS pH 6.0.

For series [3], the system named is PC12 cells. Put plainly: Viability of PC12 cells (MTT assay). The format is cell-based, rat. To be noted: cell viability < 80%; screening from 1 to 40 μM, 24 h.
Protocol: Initially, the inhibitor concentrations on PC12 cells, i.e., a rat pheochromocytoma-derived cell line, were screened to assess the possible cytotoxicity of the molecules under study [55].
(§10) 1.4 Viability and oxidative stress assays
as §1, §2, §3, §4
concentrations ranging from 1 to 40 μM, to evaluate their eventual toxicity.
(§11) For all treatments cell viability was measured by means of MTT assay, as explained in
the following paragraph [17].
as §7
(§12) dimethyl-thiazol-2-yl)-2,5-diphenyltetrazoliumbromide) assay. For this purpose, 1 mg/mL of MTT was added
as §8
(§13) the insoluble formazan crystals. After the incubation the MTT supernatant solution was removed, the cells
(§14) were washed in phosphate-buffered saline (PBS) and centrifuged while the pellet was dissolved in 2 mL of
as §9
(§15) assessed by means of a Bauty Diagnostic Microplate Reader at 578 nm. All experiments were performed in 24-
(§16) well plates (1 × 10^5 cells/mL/well) and repeated in triplicate.
A further series relates to mushroom tyrosinase. Briefly: Spectrophotometric (UV-Vis) detection of tyrosinase inhibitory activity. It is filed as biochemical. To be noted: for tyrosinase inhibition in words, tyrosine versus dopamine as substrate: UV-Vis, absorbance at 311 or 472 nm, Figure 3.
For series [4], the target named is T1, tyrosinase. Put plainly: Tyrosinase amperometric biosensor: IC50 and type of inhibition.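 On all read-outs here: Carbon-composite amperometric tyrosinase biosensors with polyurethane-entrapped enzyme, calibrated in a three-electrode cell against Ag/AgCl at room temperature, before versus after inhibitor exposure.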 The format is biochemical. The settings on record: for Type of Inhibition Tyrosinase: Lineweaver-Burk plot, biosensor exposed 30 min to twice the lowest inhibiting concentration; for VMAX, substrate + inhibitor, TYR: dopamine calibration 0-140 mM after inhibitor exposure, n=4 biosensors.
Protocol: (§17) Inhibition types and IC50 were assessed by means of carbon-based amperometric biosensors [61, 62, 63, 64, 65], that are described in the Supplementary Materials. During the experiments carried out to determine the IC50 values, the lowest inhibitory concentration of each compound was also evaluated.
(§18) To verify the inhibition types, the following protocol was used. An initial calibration with dopamine, ranging between 0 and 140 mM, was performed in order to ascertain the values of VMAX and KM. Another calibration with the same protocol was performed after having exposed the biosensors to twice the lowest inhibiting concentration of each inhibitor, in order to ensure the safe inhibition of enzymatic activity. The biosensors were exposed to the inhibitor for 30 min and after having reached a stabile baseline, a calibration with dopamine, ranging between 0 and 140 mM, was performed and the value of VMAX and KM were calculated. The variations of both VMAX and KM were then analyzed by using the Lineweaver-Burk plot in order to identify the type of inhibition induced by the tested compound. The statistical difference in VMAX and KM, before exposing the biosensors to the inhibitor and then afterwards, was calculated by means of a paired t-test (p < 0.05).
(§19) The biosensors were prepared starting from a Teflon™-insulated silver wire (30 mm in length; Ø = 125 μm),
(§20) Briefly, 1 mm of the silver wire was exposed and then introduced into a silica
(§21) capillary cylinder (10 mm in length; I.D. Ø = 180 μm, Polymicro Technologies, Phoenix, AZ, USA) partly
(§22) packed with graphite-loaded (55% w/w) epoxy resin. By mixing 850 mg of graphite with 500 mg of Araldite-
(§23) M and 200 mg of hardener, a preliminary disc electrode of carbon-composite was fabricated (Ø = 180 μm; area:
(§24) 2.5 × 10−4 cm2) by filling the silica capillary tubing with the mixture. The silver wire assured a good electrical
(§25) contact. After 24 h at 40 °C, the electrode surface was cleaned using a high-speed drill (Dremel® 300) equipped
(§26) with an aluminum oxide grinding wheel. On top of the electrode surface a 1 µl of Tyrosinase or Laccase
(§27) solution was deposited. After the complete evaporation of water at room temperature, the biosensor was
(§28) quickly dipped in the polyurethane solution in order to entrap the enzyme on the electrode surface, and after
(§29) the complete evaporation of the solvent biosensors were put to stabilize in PBS pH=6.0 overnight.
(§30) The electrochemical measurements were performed at room temperature in a classical three-electrode
(§31) electrochemical cell consisting of four biosensors as working electrodes, a reference electrode (Ag/AgCl in
(§32) Constant potential amperometry (CPA) was used for in-vitro calibrations and for inhibition evaluation
(§33) experiments by applying a constant potential of -50 mV against an Ag/AgCl reference electrode, by means of
(§34) a four-channel potentiostat (eDAQ Quadstat, e- Corder 410, eDAQ Europe, Poland) and the software Chart (v
(§35) 5.5, eDAQ Europe, Poland). Thus, once the stabilization of the baseline of biosensors was reached, increasing
(§36) volumes of a stock solution of dopamine 1 M were added in order to obtain different concentrations ranging

Series [5] deals with PC12 cells. Briefly: Protection of PC12 cells against H2O2-induced oxidative stress (MTT). It is filed as cell-based, rat. To be noted: for H2O2 Damage Protection: concentration with significant increase in viability vs H2O2, co-treatment with 100 μM H2O2, n.p.: no protection; for change of cell viability versus H2O2 alone, in words: co-treatment with 100 μM H2O2, compounds 1 up to 20 μM.
Protocol: as §10, §1, §2, §3, §4, §5, §6
with increasing concentration of the above-mentioned molecules, from 1 up to 20 μM.
as §11, §7, §12, §8, §13, §14, §9, §15, §16

These results are taken from article PMC7321210, “Synthesis and Studies of the Inhibitory Effect of Hydroxylated Phenylpropanoids and Biphenols Derivatives on Tyrosinase and Laccase Enzymes” (Molecules, 2020).

Entries after “also recorded” stand apart in the source; their conditions may differ. A value given as a limit tells only on which side of the number the result lay.

T1 sequence (C7FF04 2-392): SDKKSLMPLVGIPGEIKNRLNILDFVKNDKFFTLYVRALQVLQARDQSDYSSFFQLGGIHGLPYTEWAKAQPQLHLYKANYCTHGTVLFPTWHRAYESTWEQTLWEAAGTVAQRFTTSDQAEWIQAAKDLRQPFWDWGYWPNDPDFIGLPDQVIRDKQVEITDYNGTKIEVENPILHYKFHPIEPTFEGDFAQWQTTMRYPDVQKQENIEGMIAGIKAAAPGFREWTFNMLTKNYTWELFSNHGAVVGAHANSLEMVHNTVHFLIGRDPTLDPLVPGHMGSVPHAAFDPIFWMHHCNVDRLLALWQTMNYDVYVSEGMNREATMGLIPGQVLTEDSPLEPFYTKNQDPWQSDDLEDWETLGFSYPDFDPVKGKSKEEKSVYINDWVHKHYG
Protocol for laccase: as §17, §18, §19, §20, §21, §22, §23, §24, §25, §26, §27, §28, §29, §30, §31, §32, §33, §34, §35, §36
Protocol for mushroom tyrosinase: Kinetic assays were carried out by measuring the appearance of the product of either tyrosine or dopamine oxidation in the reaction medium at 311 and 472 nm, respectively, in a Shimadzu UV-2501 spectrophotometer (Shimadzu, Kyoto, Japan) equipped with the UV-Probe software, using a tandem quartz cuvette (Hellma, Milan, Italy) with a 2 × 4.375-mm path length [1, 2, 51]. Briefly, one side of the dual chamber cuvette was filled with 1000 µl of mushroom tyrosinase solution in 50 mM phosphate buffer, pH 6.8, 166 Units/mL using tyrosine as substrate or a 16.6 Units/mL when dopamine was used as substrate. The other chamber was loaded with 980 µL of substrate solution (180 µM tyrosine or 18 µM dopamine) in 20 mM phosphate buffer (pH 6.8) added of either 20 µL of DMSO (control) or 20 µL of a 2 mM (0.2 mM in dopamine experiments) solution of tested inhibitors in DMSO. A background spectrum in the 250–700 nm range was acquired with a 2.0 nm slit and fast speed before starting the reaction. Thereafter, the solutions in the two chambers were mixed by inversion and the UV-Vis spectra were acquired at increasing time intervals. Spectra were recorded at 311 or 472 nm in the presence of the inhibitor before mixing, and after either 24 or 10 min, using tyrosine or dopamine as a substrate, respectively. Data processing was performed with UV Probe and OriginPro 2019 (v. 9.60) softwares.
The mushroom tyrosinase was used as purchased without further purification. All solutions (tyrosinase, substrates and inhibitors) were filtered through a 0.45-μm syringe filter, aliquoted in Eppendorf tubes, and stored in freezer. The relative concentration was determined spectrophotometrically (εtyrosine 274.6 nm = 1420 M^−1·cm^−1; εdopamine at 280 nm = 2670 M^−1·cm^−1; εtyrosinase at 280 nm = 1426 M^−1·cm^−1).
Tyrosine was dissolved in 50 mM phosphate buffer, pH 6.8, final concentration 80 µM and with the added inhibitor (final concentration 20 µM) and tyrosinase (83 U/mL). The absorbance values were determined after 24 min of incubation. In the presence of dopamine, experiments were performed using 10-fold diluted solutions, and the absorbance values were determined after 10 min of incubation.

Turning to `Oc1cccc(O)c1-c1c(O)cccc1O` [Compound 5], the “tyrosinase inhibitory activity compared with biphenol 1” value on tyrosinase [1] is listed as “higher tyrosinase inhibitory activity than that of biphenol 1”. In the series on Tenebrio molitor, the pest or weed control at 6400 µg/mL was 16 ± 9.62%.

`Oc1ccc(-c2ccc(O)c(O)c2)cc1O` [Compound 2]: the “tyrosinase inhibitory activity compared with biphenol 1” value on tyrosinase [1] is given as “higher tyrosinase inhibitory activity than that of biphenol 1”. In the series on Tenebrio molitor, the pest or weed control at 6400 µg/mL is 4 ± 5.48%.

Consider `CC(=O)C=Cc1ccc(O)cc1O` [Compound 7, reference compound], for which the “MnCl2 Damage Protection” value in the series on PC12 cells [2] is “n.p”. In the series on laccase, the “Type of Inhibition Laccase” value was “competitively; also recorded: competitive” and the “VMAX, substrate + inhibitor, LAC” value is on record as 188.4±9.0 nA. Also, the pest or weed control at 6400 µg/mL with Tenebrio molitor came to 5 ± 7.07%. For the same molecule, the “Toxic Concentration” value in the series on PC12 cells [3] is listed as more than 10 µM. The “tyrosinase inhibition in words, tyrosine versus dopamine as substrate” value with mushroom tyrosinase was “most active tyrosinase inhibitor in the presence of both substrates”. Further, on tyrosinase [4], the “Type of Inhibition Tyrosinase” value is on record as “competitively; also recorded: competitive” and the “VMAX, substrate + inhibitor, TYR” value was determined as 114.1±12.5 nA. The “H2O2 Damage Protection” value in the series with PC12 cells [5] amounted to 1 µM.

On to `OC[C@H]1O[C@@H](Oc2ccc(-c3ccc(O)c(Br)c3)cc2Br)[C@H](O)[C@@H](O)[C@@H]1O` [Compound 19, (2S,3R,4S,5S,6R)-2-((3,3’-dibromo-4’-hydroxy-[1,1’-biphenyl]-4-yl)oxy)-6-(hydroxymethyl)tetrahydro-2H-pyran-3,4,5-triol], for which the melting point was 176 to 178 °C. In the series on laccase, the “Type of Inhibition Laccase” value is given as “competitive”; the “VMAX, substrate + inhibitor, LAC” value was determined as 111.4±8.9 nA; half-maximal inhibition (IC50) was put at 0.13 µM. For the same molecule, the “Toxic Concentration” value with PC12 cells [3] is “none”. Further, the “tyrosinase inhibition in words, tyrosine versus dopamine as substrate” value with mushroom tyrosinase was “predominant inhibition of tyrosine oxidation”. Besides, on tyrosinase [4], the “Type of Inhibition Tyrosinase” value is given as “noncompetitive” and the “VMAX, substrate + inhibitor, TYR” value is on record as 123.5±9.8 nA. Besides, in the series on PC12 cells [5], the “change of cell viability versus H2O2 alone, in words” value is recorded as “significant decrease (p < 0.05 vs H2O2) in cells viability at all concentrations tested” and the “H2O2 Damage Protection” value is on record as “n.p”.

For the molecule `OC[C@H]1O[C@@H](Oc2ccc(-c3ccc(O)cc3)cc2)[C@H](O)[C@@H](O)[C@@H]1O` [Compound 18, (2S,3R,4S,5S,6R)-2-((4’-hydroxy-[1,1’-biphenyl]-4-yl)oxy)-6-(hydroxymethyl)tetrahydro-2H-pyran-3,4,5-triol], the melting point was 260 to 262 °C. In the series with laccase, the “Type of Inhibition Laccase” value is “competitively; also recorded: competitive”; the “VMAX, substrate + inhibitor, LAC” value is 98.1±3.3 nA; the midpoint of inhibition, the IC50, lay at 2.62 µM. In the series with PC12 cells [3], the “Toxic Concentration” value is listed as “none”. Moreover, the “tyrosinase inhibition in words, tyrosine versus dopamine as substrate” value in the series with mushroom tyrosinase is reported as “predominant inhibition of tyrosine oxidation”. In addition, at tyrosinase [4], the “Type of Inhibition Tyrosinase” value was “competitively; also recorded: competitive” and the “VMAX, substrate + inhibitor, TYR” value was found to be 145.8±17.8 nA. Also, in the series with PC12 cells [5], the “change of cell viability versus H2O2 alone, in words” value is “significant decrease (p < 0.05 vs H2O2) in cells viability at all concentrations tested” and the “H2O2 Damage Protection” value is listed as “n.p”.

For `Oc1ccc(-c2ccc(O)cc2)cc1` [Compound 1, 4,4′-dihydroxy-biphenyl, reference compound], the “type of tyrosinase inhibition” value at tyrosinase [1] is “classical reversible competitive inhibitor”. Besides, in the series on Tenebrio molitor, the pest or weed control at 6400 µg/mL worked out at 2 ± 2.74%. Further, in the series with mushroom tyrosinase, the “tyrosinase inhibition in words, tyrosine versus dopamine as substrate” value is “predominant inhibition of tyrosine oxidation”.

For the molecule `COc1cc(O)cc(-c2cc(O)cc(OC)c2OC)c1OC` [Compound 6], the “tyrosinase inhibitory activity compared with biphenol 1” value on tyrosinase [1] is “higher tyrosinase inhibitory activity than that of biphenol 1”. Besides, in the series with Tenebrio molitor, the pest or weed control at 6400 µg/mL was 1 ± 2.24%.

Take `C=CCc1cc(-c2ccc(O)c(CC=C)c2)ccc1O` [Compound 3]: the “tyrosinase inhibitory activity compared with biphenol 1” value at tyrosinase [1] was “higher tyrosinase inhibitory activity than that of biphenol 1”. The pest or weed control at 6400 µg/mL in the series on Tenebrio molitor stood at 3 ± 2.74%.

Take `COc1cc(/C=C/C(=O)c2ccccc2)ccc1O` [Compound 10]: the “MnCl2 Damage Protection” value in the series on PC12 cells [2] was “n.p”. Besides, in the series with laccase, the “Type of Inhibition Laccase” value was “competitive”; the “VMAX, substrate + inhibitor, LAC” value is 89.2±7.7 nA; the IC50 amounted to 0.212 µM. In the series on PC12 cells [3], the “Toxic Concentration” value was more than 20 µM. Moreover, the “% inhibition of tyrosinase” value with mushroom tyrosinase (comparable with both substrates, tyrosine 80 µM, inhibitor 20 µM, 24 min, dopamine 10-fold diluted solutions, 10 min) is listed as 10%. On tyrosinase [4], the “Type of Inhibition Tyrosinase” value is on record as “uncompetitive or mixed; also recorded: mixed” and the “VMAX, substrate + inhibitor, TYR” value is given as 31.5±2.9 nA. In addition, the “H2O2 Damage Protection” value with PC12 cells [5] was 20 µM.
